For this assay, the target named is T1, human GPR119 (Homo sapiens, UniProt Q8TDV5).
T1 construct: expressed in transfected cells; host or cells: HEK 293s
T1 sequence (Q8TDV5 1-335): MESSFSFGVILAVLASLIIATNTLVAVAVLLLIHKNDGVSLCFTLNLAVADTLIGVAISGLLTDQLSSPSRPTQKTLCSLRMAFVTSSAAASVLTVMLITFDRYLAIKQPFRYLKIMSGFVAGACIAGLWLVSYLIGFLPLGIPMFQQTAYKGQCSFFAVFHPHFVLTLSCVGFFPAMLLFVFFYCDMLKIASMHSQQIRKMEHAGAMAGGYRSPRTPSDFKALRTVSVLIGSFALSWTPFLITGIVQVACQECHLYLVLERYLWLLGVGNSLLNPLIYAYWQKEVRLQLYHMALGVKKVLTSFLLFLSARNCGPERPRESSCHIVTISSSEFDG
As to the kind of experiment: Cyclic AMP (HTRF cAMP) assay for human GPR119, Method A. The format is cell-based. The note with it: Method A, HEK 293s cells over-expressing human GPR119; for activation at 30 µM: HEK293S, 0.75 h, percent effect at top concentration 30 μM relative to maximum (50 μM Oleoylethanolamide) and minimum (1% DMSO) controls.

pEC50: −log10 of the molar value.

The term pEC50 denotes the negative decadic logarithm of the EC50, by convention in mol/L. Read a high pEC50 as a small EC50.

On to `C[C@@H]1CN(C(=O)OC2(C)COC2)CCN1c1ncc(OCc2ccc(S(C)(=O)=O)cc2)cn1` [Example 80, (R)-3-methyloxetan-3-yl 3-methyl-4-(5-(4-(methylsulfonyl)benzyloxy)pyrimi-din-2-yl)piperazine-1-carboxylate], for which the activation at 30 µM is 41%. The compound `C[C@@H]1CN(C(=O)OC(C)(C)C)CCN1c1ncc(OCc2ccc(C(=O)N(C)CCO)cc2)cn1` [Example 21, (R)-tert-butyl 4-(5-(4-((2-hydroxyethyl) (methyl)carba-moyl)benzyl-oxy)pyrimidin-2-yl)-3-methyl-piperazine-1-carboxylate] registered an activation at 30 µM of 100%. Further, the pEC50 (midpoint of dose response curve, selected examples) is 6.69.

Take `Cc1cc(COc2cnc(N3CCN(C(=O)OC(C)(C)C)CC3)nc2)ccc1NC(=O)C(C)(C)C` [Example 13, tert-butyl 4-(5-(3-methyl-4-pivalamido-benzyloxy)pyrimidin-2-yl)piperazine-1-carboxylate]: the activation at 30 µM is 41%.

These data come from patent US20110065706A1, “Therapeutic Agents 812” (AstraZeneca AB, priority 2009, published 2011).
